Structures can show the parent of a compound that is named as a salt. Where two headings read alike, the source gives them in different places.
What was measured:
[1] = target: T1, KOR (Cavia porcellus, UniProt P41144); experiment: competition radioligand binding, guinea-pig brain membranes, [3H]U69,593; settings: guinea-pig brain membranes; read-out: opioid receptor binding Ki KOR
T1 construct: Membranes were prepared from Sprague-Dawley rat brains or guinea-pig brains according to the described procedures; tissue Labortierkunde und Laborgenetik, Medizinische Universität Wien; host or cells: guinea-pig brain without cerebella

[2] = target: T2, MOR (Homo sapiens, UniProt P35372); experiment: [35S]GTPγS binding assay, CHO-hMOR membranes; format: biochemical; settings: for EC50: [35S]GTPγS, CHO human MOR membranes, read-out: MOR EC50; for Emax: relative to reference full agonist DAMGO, read-out: MOR % stim.
T2 construct: host or cells: CHO (CHO-hMOR)

[3] = target: T3, KOR (Homo sapiens, UniProt P41145); experiment: [35S]GTPγS binding assay, CHO-hKOR membranes; format: biochemical; settings: for EC50: [35S]GTPγS, CHO human KOR membranes, read-out: KOR EC50; for Emax: relative to reference full agonist U69,593, read-out: KOR % stim.
T3 construct: host or cells: CHO (CHO-hKOR)

[4] = target: T4, DOR (Homo sapiens, UniProt P41143); experiment: competition radioligand binding, CHO cell membranes expressing human DOR, [3H]diprenorphine
T4 construct: host or cells: CHO (CHO-hDOR)

[5] = test system: peripheral opioid receptors; experiment: antagonism by naloxone methiodide in the acetic acid-induced writhing assay; format: in vivo, mouse; settings: sc co-administration with naloxone methiodide 1 mg/kg; agonist 50 or 200 μg/kg sc; 30 min
Excerpt: To determine whether targeted 6-amino acid and 6-dipeptide analogues inhibit writhing behavior in mice through peripheral opioid receptors activation, we used naloxone methiodide.[27]
Values are shown as mean of writhes ± SEM (n = 6–7 mice per group). ***P < 0.001 vs control group; ^#P < 0.05, ^##P < 0.01 and ^###P < 0.001 vs agonist treated group, ANOVA with Tukey’s post hoc test.
Writhing was induced in male CD1 mice by ip injection of a 0.6% acetic acid aqueous solution as described previously.[48],[62] Groups of mice were administered sc different doses of test compound or saline (control), and 5 min prior to testing (25 min after drug or saline), each animal received an ip injection of acetic acid solution. Each mouse was placed in individual transparent Plexiglas chambers, and the number of writhes was counted during a 10 min observation period. […] For the antagonism study, naloxone methiodide was sc co-administered with the respective opioid agonist, and writhing was assessed as described above.

SMILES | Ki [1] | EC50 [2] | Emax [2] | EC50 [3] | Emax [3] | Ki [4] | effect of naloxone methiodide on antinociceptive effect [5] | functional profile at MOR (full/partial agonist) ([2]; full agonist ≥85% of the response to DAMGO) | Ki ([4]; CHO cell membranes expressing human DOR, read-out: Ki DOR)
CC[C@H](N[C@H]1CC[C@@]2(OC)[C@H]3Cc4ccc(O)c5c4[C@@]2(CCN3C)[C@H]1O5)C(=O)O [Compound 19a, (2S)-2-[(4,5α-Epoxy-3-hydroxy-14β-methoxy-17-methylmorphinan-6α-yl)amino]-2-ethylacetic Acid Dihydrochloride] | 144 ± 7 nM | 5.12 ± 0.09 nM | 88 ± 2% | 942 ± 235 nM | 61 ± 2% | 38 ± 15.4 nM | reversed | – | –
CO[C@@]12CC[C@H](N[C@H](C(=O)N[C@@H](Cc3ccc(O)cc3)C(=O)O)C(C)C)[C@@H]3Oc4c(O)ccc5c4[C@@]31CCN(C)[C@@H]2C5 [Compound 22a, (2S)-2-[[(4,5α-Epoxy-3-hydroxy-14β-methoxy-17-methylmorphinan-6α-yl)amino]-(2S)-3-methylbutyrylamino]-3-(4-hydroxyphenyl)propionic Acid] | 69 ± 2.5 nM | 0.89 ± 0.04 nM | ~80% | 330 ± 179 nM | 50 ± 2% | – | reversed | partial agonists | 1.46 ± 0.59 nM

Reference: article PMC6348443 (Journal of Medicinal Chemistry, 2018)
